# Target: T1, LuxR01 (Shewanella baltica, UniProt A3CYS4)
# T1 construct: gene Sbal_0102
# T1 sequence (A3CYS4 1-175): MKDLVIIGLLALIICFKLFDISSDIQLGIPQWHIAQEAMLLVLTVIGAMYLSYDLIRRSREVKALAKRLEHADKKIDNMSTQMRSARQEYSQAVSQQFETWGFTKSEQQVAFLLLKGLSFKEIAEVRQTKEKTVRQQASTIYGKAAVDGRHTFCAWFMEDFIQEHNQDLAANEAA
# Assay: FLAG bead pull-down from ligand mixture, UHPLC-MS/MS
# Assay type: binding
# Conditions: mixture of C4-HSL, C6-HSL, PL, LL and PP, 1 uM, PBS, 4 °C, 1 h; empty-vector control
structure (smiles),measurement,value
"O=C1N[C@@H](Cc2ccccc2)C(=O)N2CCC[C@@H]12 [PP, cyclo-(L-Pro-L-Phe)]","FLAG bead pull-down from ligand mixture, UHPLC-MS/MS",PP was detected in LuxR01 and LuxR02 protein binding system

# — paper PMC6370745, “Positive Regulation of Spoilage Potential and Biofilm Formation in Shewanella baltica OS155 via Quorum Sensing System Composed of DKP and Orphan LuxRs” (Frontiers in Microbiology, 2019)
